Our source for the IC50 values is US12247011B2, “Selective inhibitors of NLRP3 inflammasome” (NodThera Limited, priority 2017, dated 2025).

Each structure is given as a SMILES string.

This test deals with IL-1β release upon NLRP3 activation in peripheral blood mononuclear cells (PBMC). The test is described as follows: PBMC IC50 Determination Assay. The class given is cell-based. Conditions: Homo sapiens; LPS-primed PBMC, 30 min compound, stimulated with ATP (5 mM) or nigericin (10 μM) for 1 h; IL-1β ELISA; read-out: PBMC IC50. The method, then:
PBMC IC50 Determination Assay
The compounds of the present disclosure were tested for their inhibitory activity against IL-1β release upon NLRP3 activation in peripheral blood mononuclear cells (PBMC).
Isolated cells were seeded into the wells of a 96-well plate and incubated for 3 h with lipopolysaccharide (LPS). Following medium exchange, the compounds of the present disclosure were added (a single compound per well) and the cells were incubated for 30 min. Next, the cells were stimulated either with ATP (5 mM) or nigericin (10 μM) for 1 h and the cell culture media from the wells were collected for further analysis.
The release of IL-1β into the media was determined by a quantitative detection of IL-1β in the media using an IL-1β enzyme-linked immunosorbent assay (ELISA) Ready-SET-Go!, eBioscience cat. […] Subsequently, plates were blocked with blocking buffer for 1 h at room temperature (rt) and after washing with a buffer (PBS with 0.05% Tween-20) incubated with protein standard and culture media. […] Plates were washed and incubated with HRP-streptavidin for 30 min at rt and washed again. The signal was developed after addition of 3,3,5,5-tetramethylbenzidine-peroxidase (TMB) until colour appeared and the reaction was stopped by 2 M H2SO4. A microplate spectrophotometer (BioTek) was used to detect signals with 450 nm. The detection range of IL-1β ELISA was 2-150 ng/ml.
For orientation: An ELISA detects its analyte on a solid surface through an enzyme-linked reagent.
`CCOC(=O)C(Cn1cccn1)OC(=O)Nc1c(C)cccc1CC` (centres unmarked) [Compound 46, Ethyl 2-{[(2-ethyl-6-methylphenyl)carbamoyl]oxy}-3-(1H-pyrazol-1-yl)propanoate]: the IC50 (commonly the concentration that gives 50% inhibition) is 100 to 1000 nM.
Take `CCOC(=O)C(Cn1cccn1)OC(=O)Nc1c(CC)cccc1CC` (centres unmarked) [Compound 48, Ethyl 2-{[(2,6-diethylphenyl)carbamoyl]oxy}-3-(1H-pyrazol-1-yl)propanoate]: the half-maximal inhibitory concentration (IC50) lay within 100 to 1000 nM.
`CCOC(=O)C(Cn1cccn1)OC(=O)Nc1c(C)cccc1F` (centres unmarked) [Compound 49, Ethyl 2-{[(2-fluoro-6-methylphenyl)carbamoyl]oxy}-3-(1H-pyrazol-1-yl)propanoate]: the IC50 lay within 100 to 1000 nM.
Then `CCOC(=O)C(Cn1cccn1)OC(=O)Nc1c(F)cccc1Cl` (centres unmarked) [Compound 50, Ethyl 2-{[(2-chloro-6-fluorophenyl)carbamoyl]oxy}-3-(1H-pyrazol-1-yl)propanoate], with 100 to 1000 nM; and `CCOC(=O)C(Cn1cccn1)OC(=O)Nc1c(C)cccc1Cl` (centres unmarked) [Compound 51, Ethyl 2-{[(2-chloro-6-methylphenyl)carbamoyl]oxy}-3-(1H-pyrazol-1-yl)propanoate], with 1000 to 10000 nM; and `CCOC(=O)C(Cn1cccn1)OC(=O)Nc1c(Cl)cccc1Cl` (centres unmarked) [Compound 52, Ethyl 2-{[(2,6-dichlorophenyl)carbamoyl]oxy}-3-(1H-pyrazol-1-yl)propanoate], with 1000 to 10000 nM.
In the case of `CCOC(=O)C(Cn1cccn1)OC(=O)NC1CCCCC1` (centres unmarked) [Compound 53, ethyl 2-[(cyclohexylcarbamoyl)oxy]-3-(1H-pyrazol-1-yl)-propanoate], the IC50 was in the range of 1000 to 10000 nM.
Take `CCOC(=O)C(Cn1cccn1)OC(=O)NC1CCCC1` (centres unmarked) [Compound 54, Ethyl 2-[(cyclopentylcarbamoyl)oxy]-3-(1H-pyrazol-1-yl)propanoate]: the IC50 fell in the range of 1000 to 10000 nM.
On to `CCOC(=O)C(Cn1cccn1)OC(=O)NC1CCCCCC1` (centres unmarked) [Compound 56, Ethyl 2-[(cycloheptylcarbamoyl)oxy]-3-(1H-pyrazol-1-yl)propanoate], for which the concentration for half-maximal inhibition (IC50) is greater than 10000 nM.
For `CCOC(=O)C(Cn1cccn1)OC(=O)Nc1c(C)cccc1C#N` (centres unmarked) [Compound 57, Ethyl 2-{[(2-cyano-6-methylphenyl)carbamoyl]oxy}-3-(1H-pyrazol-1-yl)propanoate], the IC50 was greater than 10000 nM.
Then `CCOC(=O)C(Cn1cccn1)OC(=O)Nc1c(C#N)cccc1CC` (centres unmarked) [Compound 58, Ethyl 2-{[(2-cyano-6-ethylphenyl)carbamoyl]oxy}-3-(1H-pyrazol-1-yl)propanoate], with 1000 to 10000 nM.
`CCOC(=O)C(Cn1cccn1)OC(=O)Nc1c(Cl)cccc1C#N` (centres unmarked) [Compound 59, Ethyl 2-{[(2-chloro-6-cyanophenyl)carbamoyl]oxy}-3-(1H-pyrazol-1-yl)propanoate]: the IC50 is greater than 10000 nM.
For `O=C(Nc1c2c(cc3c1CCC3)CCC2)O[C@H](Cn1cccn1)C(=O)O` [Compound 61, (2R)-2-{[(1,2,3,5,6,7-hexahydro-s-indacen-4-yl)carbamoyl]oxy}-3-(1H-pyrazol-1-yl)propanoic acid], the IC50 lay in the range of 100 to 1000 nM.
The same measure for `CCOC(=O)C(Cc1cccnn1)OC(=O)Nc1c2c(cc3c1CCC3)CCC2` (centres unmarked) [Compound 62, Ethyl 2-{[(1,2,3,5,6,7-hexahydro-s-indacen-4-yl)carbamoyl]oxy}-3-(pyridazin-3-yl)propanoate]: 100 to 1000 nM; for `CCOC(=O)C(Cn1cccn1)OC(=O)Nc1c(F)ccc(F)c1F` (centres unmarked) [Compound 63, Ethyl 3-(1H-pyrazol-1-yl)-2-{[(2,3,6-trifluorophenyl)carbamoyl]oxy}propanoate]: 100 to 1000 nM.
The same measure for `O=C(Nc1c2c(cc3c1CCC3)CCC2)O[C@H](Cn1cccn1)C(=O)OCc1ccccc1` [Compound 64, Benzyl (2R)-2-{[(1,2,3,5,6,7-hexahydro-s-indacen-4-yl)carbamoyl]oxy}-3-(1H-pyrazol-1-yl)propanoate]: 100 to 1000 nM; for `CCOC(=O)C(Cn1cccn1)OC(=O)Nc1c(F)cccc1CC` (centres unmarked) [Compound 66, Ethyl 2-{[(2-ethyl-6-fluorophenyl)carbamoyl]oxy}-3-(1H-pyrazol-1-yl)propanoate]: 100 to 1000 nM.
